Here are results for four molecules from ChEMBL document CHEMBL1201862, “PubChem BioAssay data set” (2004).

The structures appear in SMILES notation.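 Five compound concentrations were applied to cells in 96-well plates for 48 hours; endpoints were derived by simple linear interpolation of the resulting dose-response curve. The concentration for 50% growth inhibition is given as GI50.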 The source made the active and inactive calls. Rule as the data show it: active = GI50 up to about 1.1 µM and inactive = higher. Where only a bound is given, the exact number is not on record here.

Some test systems named below: HCT-15; SR; SF-539; MDA-MB-435; U-251; OVCAR-8; T47D; HOP-92; HCC 2998; OVCAR-5; NCI/ADR-RES; COLO 205; KM12; A549; SNB-75; HL-60; Hs-578T; K562; NCI-H522; A498.
Experiment in all cases: growth of human tumour cells (NCI), 48 h

In the case of `O=C(O)c1ccccc1/C=N/N=C1NCCN1`, the GI50 with HCT-15 was above 100 µM; with SR it was 88.5 µM (inactive); in the assay on SF-539 it was > 100 µM (inactive); in the assay on MDA-MB-435 it was > 100 µM (inactive); in the assay with U-251 it was > 100 µM (inactive); with OVCAR-8, > 100 µM (inactive). Further, the GI50 is > 100 µM (inactive) in the assay with T47D; 22.7 µM (inactive) in the assay with HOP-92; > 100 µM (inactive) in the assay with HCC 2998; > 100 µM (inactive) in the assay with OVCAR-5; > 100 µM (inactive) in the assay with NCI/ADR-RES; > 100 µM (inactive) with COLO 205. Besides, the GI50 with KM12 is > 100 µM (inactive); with A549 it was > 100 µM (inactive); with SNB-75 it was > 100 µM (inactive); in the assay on HL-60, 49.4 µM (inactive); in the assay with Hs-578T it was > 100 µM (inactive); with K562, > 100 µM (inactive). The GI50 is 71.8 µM (inactive) with NCI-H522 and 26.8 µM (inactive) in the assay with A498.
On to `NCCNC(=O)CN(CC(=O)O)C1CCCCC1N(CC(=O)O)CC(=O)O` (stereo not given), for which the GI50 in the assay on HCT-15 was above 100 µM; with SR, > 100 µM (inactive); in the assay with SF-539 it was > 100 µM (inactive); with MDA-MB-435, > 100 µM (inactive); in the assay with U-251, > 100 µM (inactive); in the assay with OVCAR-8 it was > 100 µM (inactive). Moreover, the GI50 in the assay with T47D was > 100 µM (inactive); with HOP-92, 11.7 µM (inactive); in the assay on HCC 2998, > 100 µM (inactive); in the assay on OVCAR-5, > 100 µM (inactive); in the assay with NCI/ADR-RES, > 100 µM (inactive); in the assay on COLO 205 it was > 100 µM (inactive). Also, the GI50 is > 100 µM (inactive) in the assay with KM12; > 100 µM (inactive) with A549; 2.32 µM (inactive) in the assay with SNB-75; > 100 µM (inactive) in the assay with HL-60; 56 µM (inactive) with Hs-578T; > 100 µM (inactive) with K562. Further, the GI50 with NCI-H522 and in the assay on A498 was > 100 µM (inactive) throughout.
Regarding `COc1cc(NS(C)(=O)=O)ccc1NCc1c[nH]c2ccc3ncccc3c12`, the GI50 in the assay with HCT-15 was 21.7 µM; in the assay with SR it was 2.75 µM (inactive); with SF-539, 19.3 µM (inactive); in the assay on MDA-MB-435, 19.3 µM (inactive); with U-251, 27.5 µM (inactive); with OVCAR-8, 25 µM (inactive). In addition, the GI50 in the assay on T47D is 10.9 µM (inactive); in the assay with HOP-92, 33 µM (inactive); with HCC 2998, 18.9 µM (inactive); in the assay on OVCAR-5, 20.9 µM (inactive); in the assay on NCI/ADR-RES it was 20.3 µM (inactive); in the assay on COLO 205, 15.6 µM (inactive). In addition, the GI50 was 17.1 µM (inactive) with KM12; 27.8 µM (inactive) with A549; 14.3 µM (inactive) in the assay on SNB-75; 0.871 µM (active) with HL-60; 19.7 µM (inactive) with Hs-578T; 9.12 µM (inactive) in the assay with K562. Besides, the results for the GI50 in the assay on NCI-H522 and in the assay on A498 were 14.2 µM (inactive) and 23.1 µM (inactive), respectively.
Turning to `Clc1ccc(Cn2cc(/C=N/n3cnnc3)c3ccccc32)cc1`, the GI50 in the assay on HCT-15 was 60.1 µM; in the assay with SR, 39.9 µM (inactive); in the assay on SF-539, 40.5 µM (inactive); with MDA-MB-435 it was 83.9 µM (inactive); with U-251 it was 37.8 µM (inactive); in the assay with OVCAR-8, 40.4 µM (inactive). Further, the GI50 in the assay on T47D is 11.8 µM (inactive); in the assay with HOP-92, 14.6 µM (inactive); in the assay with HCC 2998, 14.4 µM (inactive); in the assay with OVCAR-5 it was 11.7 µM (inactive); in the assay on NCI/ADR-RES, 35 µM (inactive); in the assay on COLO 205 it was 18.5 µM (inactive). The GI50 in the assay with KM12 was 70.3 µM (inactive); in the assay on A549, 41.8 µM (inactive); in the assay on SNB-75, 21.1 µM (inactive); in the assay with HL-60 it was 40.6 µM (inactive); in the assay with Hs-578T it was 37.1 µM (inactive); in the assay on K562 it was 22.5 µM (inactive). In addition, the GI50 was 23.2 µM (inactive) in the assay on NCI-H522 and 1.49 µM (inactive) with A498.
